Here are results for 11 compounds from EP4471048A1, “PEPTIDE INHIBITORS OF INTERLEUKIN-23 RECEPTOR” (Zealand Pharma A/S, priority 2023, dated 2024).

Molecules are shown by their SMILES. *1 amine or outer side, *2 acyl side, *3 side chain or, on linkers, in order; H or OH if unused. Where a SMILES comes first, the peptide text is derived from it. Bridges are numbered along the chain shown (N, C = ends). [ ]: non-standard residue; d: D form. hAad = O=C([C@H](CCCCC(=O)[*:3])N[*:1])[*:2]; 2Nal = N[C@@H](Cc1ccc2ccccc2c1)C(=O)O; AEF = NCCOc1ccc(C[C@H](N)C(=O)O)cc1; X1 = O=C(Cc1ccc(CN[*:1])cc1)[*:2]; 3Pal = N[C@@H](Cc1cccnc1)C(=O)O; αMeL = CC(C)C[C@](C)(N)C(=O)O; CH2COCH2 = O=C(C[*:1])C[*:2]; NMeS = CN[C@@H](CO)C(=O)O; dDab = NCC[C@@H](N)C(=O)O; Dab = NCC[C@H](N)C(=O)O

For this assay, the target named is T1, human IL-23R (Homo sapiens, UniProt Q5VWK5).
T1 sequence (Q5VWK5 22-629): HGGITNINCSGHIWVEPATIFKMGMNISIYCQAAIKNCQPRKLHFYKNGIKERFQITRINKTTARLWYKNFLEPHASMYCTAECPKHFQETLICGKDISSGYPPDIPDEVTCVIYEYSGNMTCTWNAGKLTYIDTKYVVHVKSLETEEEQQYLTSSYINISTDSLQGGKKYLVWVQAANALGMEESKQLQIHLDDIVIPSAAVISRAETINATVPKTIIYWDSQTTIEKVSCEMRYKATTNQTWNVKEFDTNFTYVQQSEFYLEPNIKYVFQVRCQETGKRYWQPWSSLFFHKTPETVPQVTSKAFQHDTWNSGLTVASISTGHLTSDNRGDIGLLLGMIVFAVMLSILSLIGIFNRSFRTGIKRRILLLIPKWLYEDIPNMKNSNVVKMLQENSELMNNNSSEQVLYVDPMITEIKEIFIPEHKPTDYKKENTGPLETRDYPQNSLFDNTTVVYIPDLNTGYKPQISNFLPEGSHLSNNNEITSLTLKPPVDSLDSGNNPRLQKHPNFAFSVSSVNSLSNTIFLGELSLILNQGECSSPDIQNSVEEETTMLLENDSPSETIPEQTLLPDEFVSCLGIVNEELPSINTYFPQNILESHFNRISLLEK
Put plainly: biochemical. Particulars: for Emax: read-out: % displacement (hIL-23R NIuc). An excerpt: The compound binding affinity for IL-23R was estimated by the ability of compounds to displace a fluorophore-labelled reference compound from the human IL-23R. The assay principle relies on Bioluminescence Resonance Energy Transfer (BRET) between a fluorophore-labelled reference compound binding to the IL-23R part of a fusion protein consisting of the IL-23R fused to a Nanoluc luciferase enzyme (Nanoluc). The Nanoluc is placed in the N-terminus in close proximity to the binding domain of the ligand. Upon close proximity between the fluorophore of the fluorophore-labelled compound and the Nanoluc of the fusion protein, bioluminescence energy generated from conversion of a Nanoluc substrate, is transferred to the fluorophore resulting in an increase in BRET. In presence of an unlabelled compound, the unlabelled compound displaces the fluorophore-labelled peptide from its binding site resulting in a decrease in BRET. The concentration for which half of the fluorophore-labelled peptide is displaced by the unlabelled compound depends on the affinity of the compound for the IL-23R, and is termed the IC50 concentration.
The plasmid also contained a gene to confer resistance for the antibiotic hygromycin. A cell line stably expressing the Nluc-IL23R fusion protein was generated by transfection of HEK293 cells with the expression plasmid and selected with hygromycin for 3 weeks in Growth medium consisting of DMEM w/ Glutamax-I containing, 10% V/V FBS, 1% V/V P/S, 1 mM Sodium Pyruvate, and 1X NEAA, and 0.3 mg/mL hygromycin. The remaining cells were propagated and considered a stable expressing Nluc-IL23R fusion protein pool clone.
Cells expressing the Nluc-IL23R fusion protein were expanded in Growth medium and membranes prepared by homogenization of a cell pellet from 18 T175 flasks (4 °C in subsequent steps). The cell pellet was lysed Tris 10 mM, 7.5, 1 mM EDTA and protease inhibitors (Complete, Roche) and homogenized using a 15 mL glass-dounce by 50 strokes. The homogenate was spun at spin @1500 rpm for 10 min, the supernatant transferred to SV-34 tubes and spun at 40000g for 20 min at 4 °C to pellet the crude membranes. The supernatant was then removed, the pellet resuspended in 5 mL buffer containing 50 mM HEPES pH 7.4, 5 mM EGTA, and 5 mM MgCl2, and homogenized. Aliquots of the resuspended and homogenized membranes containing the Nluc-IL23R fusion protein were stored at -80 °C until use.
The plate was sealed with light impermeable plate seals, and incubated on an orbital shaker 400 rpm for 2 hours at room temperature. To determine the BRET ratio, the plate seal was removed and 25 µL of the Nanoluc substrate (Promega N1572) diluted 1:500 was added to each well and incubated for 1-2 minutes on an orbital shaker at 400 rpm. […] The BRET ratio was calculated as the fluorescence from the TAMRA/nanoluc bioluminescence.
Compound potency (IC50) and maximal displacement (% displacement) were estimated by computer-aided curve fitting using a 4-parameter logistic (4PL) non-linear model. […]
In this application, the inventors provide the data as IC50 values.

`COc1ccc(C[C@@H]2NC(=O)[C@@H]3CCC(=O)N[C@@H](CCCCNC(=O)CC[C@@H](C(=O)N[C@@H](CCCCNC(=O)CCc4ncc[nH]4)C(N)=O)NC(=O)[C@](C)(CC(C)C)NC(=O)[C@H](Cc4ccc5ccccc5c4)NC2=O)C(=O)N[C@@H]([C@@H](C)O)C(=O)N[C@@H](C(C)C)C(=O)N[C@@H](Cc2c[nH]c4ccccc24)C(=O)N[C@@H](CCC(N)=O)C(=O)N3)cc1` [Compound 59, K(1c)(6c)^†TVWQE(6c)[Y(Me)][2-Nal][2-Me-Leu]E(1c)[K(Imidazolepropanoyl)]-[NH2]]: the IC50 (in general, the concentration at which inhibition is half-maximal) is 330 nM. In the case of `CNC(=O)[C@H](Cc1cccnc1)NC(=O)[C@H](Cc1ccncc1)NC(=O)[C@@H]1CCC(=O)NCCCC[C@@H]2NC(=O)CC[C@H](NC(=O)[C@H](CCC(N)=O)NC(=O)[C@H](Cc3c[nH]c4ccccc34)NC(=O)CCNC2=O)C(=O)N[C@@H](Cc2ccc(OCCN)cc2)C(=O)N[C@@H](Cc2ccc3ccccc3c2)C(=O)N[C@@](C)(CC(C)C)C(=O)N1` [Compound 89, K(1c)(6c)^†[3-Aminopropanoyl]WQE(6c)[Y(2-aminoethoxy)][2-Nal][2-Me-Leu]E(1 c)[3-(4-Pyridyl)-Ala][3-(3-Pyridyl)-Ala]-[NHMe]], the 50% inhibitory concentration (IC50) turned out to be 0.04 nM and the Emax turned out to be 100%.

Turning to `CC[C@H](C)[C@@H]1NC(=O)[C@@H]2CCCCNC(=O)CC[C@@H](C(=O)NCCc3cccnc3)NC(=O)[C@](C)(C(C)C)NC(=O)[C@H](Cc3ccc4ccccc4c3)NC(=O)[C@H](Cc3ccc(OCCN)cc3)NC(=O)[C@@H](CCC(=O)N2)NC(=O)[C@H](CCC(N)=O)NC(=O)[C@H](Cc2c[nH]c3ccccc23)NC(=O)[C@H](C(C)C)NC1=O` [Compound 27, K(1c)(6c)^†VWQ[{d}E](6c)[Y(2-aminoethoxy)][2-Nal][2-Me-Val]E(1c)-[NH-2-(pyridin-3-yl)ethyl]], the “% displacement (hIL-23R NIuc)” value was 102% and the IC50 stood at 110 nM. As for `CC(C)C[C@]1(C)NC(=O)[C@H](Cc2ccc3ccccc3c2)NC(=O)[C@H](Cc2ccc(OCCN)cc2)NC(=O)[C@@H]2CSCC(=O)CSC[C@H](NC(=O)[C@H](CO)N(C)C(=O)Cc3ccc(cc3)CNC(=O)CC[C@@H](C(=O)N[C@@H](CCN)C(N)=O)NC1=O)C(=O)N[C@@H](Cc1c[nH]c3ccccc13)C(=O)N[C@@H](CCC(N)=O)C(=O)N2` [Ref 141, [4-Aminomethyl-phenylacetyl](1c)*[N-Me-Ser]C(2a)WQC(2a)[Y(2-aminoethoxy)][2-Nal][2-Me-Leu]E(1c)[Dab]-[NH2], reference compound] ([X1][NMeS]CWQC[AEF][2Nal][αMeL]E[Dab]-NH2; linker 3-6 via CH2COCH2; lactam N-10), the “% displacement (hIL-23R NIuc)” value came out at 102% and half-maximal inhibition (IC50) required 3.5 nM. Consider `COc1ccc(C[C@@H]2NC(=O)[C@@H]3CCC(=O)N[C@@H](CCCCNC(=O)CC[C@@H](C(=O)N[C@@H](CCCCNC(=O)c4ccncc4)C(N)=O)NC(=O)[C@](C)(CC(C)C)NC(=O)[C@H](Cc4ccc5ccccc5c4)NC2=O)C(=O)N[C@@H]([C@@H](C)O)C(=O)N[C@@H](C(C)C)C(=O)N[C@@H](Cc2c[nH]c4ccccc24)C(=O)N[C@@H](CCC(N)=O)C(=O)N3)cc1` [Compound 53, K(1c)(6c)^†TVWQE(6c)[Y(Me)][2-Nal][2-Me-Leu]E(1c)[K(isonicotinyl)]-[NH2]], for which the IC50 is 420 nM and the Emax stood at 95%. Consider `COc1ccc(C[C@@H]2NC(=O)[C@@H]3CCC(=O)N[C@@H](CCCCNC(=O)CC[C@@H](C(=O)N[C@@H](CCCCNC(=O)Cc4ccccn4)C(N)=O)NC(=O)[C@](C)(CC(C)C)NC(=O)[C@H](Cc4ccc5ccccc5c4)NC2=O)C(=O)N[C@@H]([C@@H](C)O)C(=O)N[C@@H](C(C)C)C(=O)N[C@@H](Cc2c[nH]c4ccccc24)C(=O)N[C@@H](CCC(N)=O)C(=O)N3)cc1` [Compound 48, K(1c)(6c)^†TVWQE(6c)[Y(Me)][2-Nal][2-Me-Leu]E(1c)[K(2-pyridylacetyl)]-[NH2]], for which the IC50 was found to be 290 nM and the Emax is 101%.

For `CC[C@H](C)[C@@H]1NC(=O)[C@@H]2CCCCNC(=O)CC[C@@H](C(=O)NCC(=O)N[C@H](Cc3cccnc3)C(N)=O)NC(=O)[C@](C)(C(C)C)NC(=O)[C@H](Cc3ccc4ccccc4c3)NC(=O)[C@@H](Cc3ccccc3)NC(=O)[C@H](CCC(=O)N2)NC(=O)[C@H](CCC(N)=O)NC(=O)[C@H](Cc2c[nH]c3ccccc23)NC(=O)[C@H](C(C)C)NC1=O` [Compound 22, K(1c)(6c)^†IVWQE(6c)[{d}F][2-Nal][2-Me-Val]E(1c)G[{d}3-(3-Pyridyl)-Ala]-[NH2]], the 50% inhibitory concentration (IC50) came out at 980 nM and the Emax was determined as 86%. The matching figures for `CNC(=O)[C@H](Cc1cccnc1)NC(=O)[C@H](Cc1ccccn1)NC(=O)[C@@H]1CCC(=O)NCCCC[C@@H]2NC(=O)CC[C@H](NC(=O)[C@H](CCC(N)=O)NC(=O)[C@H](Cc3c[nH]c4ccccc34)NC(=O)CCNC2=O)C(=O)N[C@@H](Cc2ccc(OCCN)cc2)C(=O)N[C@@H](Cc2ccc3ccccc3c2)C(=O)N[C@@](C)(CC(C)C)C(=O)N1` [Compound 88, K(1c)(6c)^†[3-Aminopropanoyl]WQE(6c)[Y(2-aminoethoxy)][2-Nal][2-Me-Leu]E(1 c)[3-(2-Pyridyl)-Ala][3-(3-Pyridyl)-Ala]-[NHMe]]: 0.052 nM and 100%. The matching figures for `CC[C@H](C)[C@@H]1NC(=O)[C@@H]2CCCCNC(=O)CC[C@@H](C(=O)N[C@@H](CCN)C(=O)N[C@@H](Cc3cccnc3)C(=O)NC)NC(=O)[C@](C)(CC(C)C)NC(=O)[C@H](Cc3ccc4ccccc4c3)NC(=O)[C@H](Cc3ccc(OC)cc3)NC(=O)[C@H](CCC(=O)N2)NC(=O)[C@H](CCC(N)=O)NC(=O)[C@H](Cc2c[nH]c3ccccc23)NC(=O)[C@H](C(C)C)NC1=O` [Compound 35, K(1c)(6c)^†IVWQE(6c)[Y(Me)][2-Nal][2-Me-Leu]E(1c)[Dab][3-(3-Pyridyl)-Ala]-[NHMe]]: 0.11 nM and 98%. Take `CC[C@H](C)[C@@H]1NC(=O)[C@@H]2CCCCNC(=O)CC[C@@H](C(=O)NCCCCc3cccnc3)NC(=O)[C@](C)(C(C)C)NC(=O)[C@H](Cc3ccc4ccccc4c3)NC(=O)[C@H](Cc3ccc(OCCN)cc3)NC(=O)[C@H](CCC(=O)N2)NC(=O)[C@H](CCC(N)=O)NC(=O)[C@H](Cc2c[nH]c3ccccc23)NC(=O)[C@H](C(C)C)NC1=O` [Compound 28, K(1c)(6c)^†IVWQE(6c)[Y(2-aminoethoxy)][2-Nal][2-Me-Val]E(1c)-[NH-4-(pyridin-3-yl)butanyl]]: the “% displacement (hIL-23R NIuc)” value is 97% and 200 nM corresponded to half-maximal inhibition (IC50). `CC(C)C[C@]1(C)NC(=O)[C@H](Cc2ccc3ccccc3c2)NC(=O)[C@H](Cc2ccc(OCCN)cc2)NC(=O)[C@@H]2CC(=O)N[C@H](CCNC(=O)CCCC[C@@H](C(=O)N[C@@H](CCN)C(=O)N[C@@H](Cc3cccnc3)C(N)=O)NC1=O)C(=O)N[C@@H]([C@@H](C)O)C(=O)N[C@@H](Cc1c[nH]c3ccccc13)C(=O)N[C@@H](CCC(N)=O)C(=O)N2` [Compound 15, [{d}Dab](1c)(6c)^†TWQD(6c)[Y(2-aminoethoxy)][2-Nal][2-Me-Leu][2-Amino-6-carboxyhexanoyl](1 c)[Dab][3-(3-Pyridyl)-Ala]-[NH2]] ([dDab]TWQD[AEF][2Nal][αMeL][hAad][Dab][3Pal]-NH2; lactam 1-9, N-5): the Emax was 105%.
